Data published in patent US20050148633A1 (priority 2003, published 2005).

system: IL-2 production; assay: Inhibition of IL-2 production in PHA-activated Jurkat cells (ELISA); assay type: cell-based; details: Homo sapiens, PHA 2.5 μg/mL, 20 hours, value bins
Method: Jurkat cells were placed in a 96 well plate (0.5 million cells per well in 1% FBS medium) then test compounds of this invention were added at different concentrations. After 10 minutes, the cells were activated with PHA (final concentration 2.5 μg/mL) and incubated for 20 hours at 37° C. under CO2. The final volume was 200 μL. Following incubation, the cells were centrifuged and the supernatants collected and stored at −70° C. prior to assaying for IL-2 production. A commercial ELISA kit (IL-2 Eli-pair, Diaclone Research, Besancon, France) was used to detect production of IL-2, from which dose response curves were obtained. The IC50 value was calculated as the concentration at which 50% of maximum IL-2 production after stimulation was inhibited versus a non-stimulation control.

| SMILES | IC50 [nM] |
| --- | --- |
| O=C(Nc1ccc(-c2ccccc2C(F)(F)F)cc1)c1cc(F)ccc1F [Compound 16, 2,5-Difluoro-N-(2′-trifluoromethyl-biphenyl-4-yl)-benzamide] | 100 to 500 |
| Cc1noc(C)c1C(=O)Nc1ccc(-c2cc(C(F)(F)F)ccc2C(F)(F)F)cc1 [Compound 43, 3,5-dimethylisoxazole-4-carboxylic acid (2′,5′-bis-trifluoromethyl-biphenyl-4-yl)-amide] | < 100 |
| Cc1ccccc1-c1ccc(NC(=O)c2ccncc2F)cc1 [Compound 2, 3-Fluoro-N-(2′-methyl-biphenyl-4-yl)-isonicotinamide] | 100 to 500 |
| O=C(Nc1ccc(-c2cc(Cl)ccc2Cl)cc1)c1c(F)cccc1F [Compound 88, N-(2′,5′-dichlorobiphenyl-4-yl)-2,6-difluorobenzamide] | < 100 |
| COc1ccc(N(C)C)c(-c2ccc(NC(=O)c3ccncc3C)cc2)c1 [Compound 80, 3-methyl-pyridine-4-carboxylic acid {2′-(N,N-dimethylamino)-5′-methoxybiphenyl-4-yl}-amide] | 100 to 500 |
| COc1ccc(OC)c(-c2ccc(NC(=O)c3ccccc3C)cc2)c1 [Compound 59, N-(2′,5′-dimethoxy-biphenyl-4-yl)-2-methylbenzamide] | < 100 |
| O=C(Nc1ccc(-n2c(C(F)(F)F)nnc2C(F)(F)F)cc1)c1cccc(F)c1F [Compound 32, N-[4-(3,5-Bis-trifluoromethyl-[1,2,4]triazol-4-yl)-phenyl]-2,3-difluoro-benzamide] | 100 to 500 |
| O=C(Nc1ccc(-c2cc(C(F)(F)F)ccc2C(F)(F)F)cc1)c1ccno1 [Compound 42, Isoxazole-5-carboxylic acid (2′,5′-bis-trifluoromethyl-biphenyl-4-yl)-amide] | 100 to 500 |
| COc1ccc(OC)c(-c2ccc(NC(=O)c3c(F)cccc3F)cc2)c1 [Compound 125, N-(2′,5′-dimethoxy-biphenyl-4-yl)-2,6-difluoro-benzamide] | < 100 |
| O=C(Nc1ccc(-c2cc(C(F)(F)F)ccc2C(F)(F)F)cc1)c1ccncc1F [Compound 68, 3-fluoro-pyridine-4-carboxylic acid (2′,5′-bis-trifluoromethylbiphenyl-4-yl)-amide] | < 100 |
| O=C(Nc1ccc(-c2cc(Cl)ccc2OC(F)F)cc1)c1ccncc1F [Compound 72, 3-fluoro-pyridine-4-carboxylic acid (2′-difluoromethoxy-5′-chlorobiphenyl-4-yl)-amide] | < 100 |
| O=C(Nc1ccc(-c2ccccc2C(F)(F)F)cc1)c1cccc(F)c1F [Compound 15, 2,3-Difluoro-N-(2′-trifluoromethyl-biphenyl-4-yl)-benzamide] | 100 to 500 |
| O=C(Nc1ccc(-c2c(C(F)(F)F)cc3ccccn23)cc1)c1cc(F)ccc1F [Compound 90, 2,5-Difluoro-N-[4-(2-trifluoromethyl-indolizin-3-yl)-phenyl]-benzamide] | 100 to 500 |
| Cn1cncc1C(=O)Nc1ccc(-c2cc(C(F)(F)F)ccc2C(F)(F)F)cc1 [Compound 62, 1-methyl-1H-imidazole-5-carboxylic acid (2′,5′-bis-trifluoromethyl-biphenyl-4-yl)-amide] | 100 to 500 |
| Cc1oncc1C(=O)Nc1ccc(-c2cc(C(F)(F)F)ccc2C(F)(F)F)cc1 [Compound 51, 5-methylisoxazole-4-carboxylic acid (2′,5′-bis-trifluoromethyl-biphenyl-4-yl)-amide] | 100 to 500 |
| Cc1cc(C(=O)Nc2ccc(-c3cc(C(F)(F)F)ccc3C(F)(F)F)cc2)n(C)n1 [Compound 40, 1,3-Dimethyl-1H-pyrazol-5-carboxylic acid (2′,5′-bis-trifluoromethyl-biphenyl-4-yl)-amide] | 100 to 500 |
| N#Cc1cc(C(F)(F)F)cnc1-c1ccc(NC(=O)c2cccc(F)c2F)cc1 [Compound 37, N-[4-(3-cyano-5-trifluoromethyl-pyrid-2-yl)-phenyl]-2,3-difluoro-benzamide] | 100 to 500 |

| SMILES | IC50 [nM] |
| --- | --- |
| Cc1ccc(C)c(-c2ccc(NC(=O)c3c(F)cccc3F)cc2)c1 [Compound 87, N-(2′,5′-dimethylbiphenyl-4-yl)-2,6-difluorobenzamide] | < 100 |
| CCc1ccc(CC)c(-c2ccc(NC(=O)c3ccncc3C)cc2)c1 [Compound 79, 3-methyl-pyridine-4-carboxylic acid (2′,5′-diethylbiphenyl-4-yl)-amide] | < 100 |
| O=C(Nc1ccc(-c2c(C(F)(F)F)cc3ccccn23)cc1)c1cccc(F)c1F [Compound 21, 2,3-Difluoro-N-[4-(2-trifluoromethyl-indolizin-3-yl)-phenyl]-benzamide] | < 100 |
| COc1ccc(Cl)cc1-c1ccc(NC(=O)c2cccc(F)c2F)cc1 [Compound 44, N-(2′-methoxy-5′-chloro-biphenyl-4-yl)-2,3-difluoro-benzamide] | < 100 |
| O=C(Nc1ccc(-c2cc(C(F)(F)F)ccc2C(F)(F)F)cc1)c1csnn1 [Compound 41, [1,2,3]-Thiadiazole-4-carboxylic acid (2′,5′-bis-trifluoromethyl-biphenyl-4-yl)-amide] | 100 to 500 |
| Cc1ccccc1C(=O)Nc1ccc(-c2cc(C(F)(F)F)ccc2C(F)(F)F)cc1 [Compound 45] | < 100 |
| COc1ccc(Cl)cc1-c1ccc(NC(=O)c2ccncc2F)cc1 [Compound 67, 3-fluoro-pyridine-4-carboxylic acid (2′-methoxy-5′-chlorobiphenyl-4-yl)-amide] | < 100 |
| Cc1cnccc1C(=O)Nc1ccc(-c2cc(C(F)(F)F)ccc2Cl)cc1 [Compound 74, 3-methyl-pyridine-4-carboxylic acid (2′-chloro-5′-trifluoromethylbiphenyl-4-yl)-amide] | < 100 |
| O=C(Nc1ccc(-c2cc(C(F)(F)F)ccc2Cl)cc1)c1c(F)cccc1F [Compound 86, N-(2′-chloro-5′-trifluoromethylbiphenyl-4-yl)-2,6-difluorobenzamide] | < 100 |
| O=C(Nc1ccc(-c2cc(C(F)(F)F)ccc2F)cc1)c1cccc(F)c1F [Compound 19, 2,3-Difluoro-N-(2′-fluoro-5′-trifluoromethyl-biphenyl-4-yl)-benzamide] | 100 to 500 |
| COc1ccc(Cl)cc1-c1ccc(NCc2c(F)cccc2F)cc1 [Compound 129, N-(2′-methoxy-5′-chloro-biphenyl-4-yl)-2,6-difluoro-benzyl amine] | < 100 |
| Cc1cc2ccccn2c1-c1ccc(NC(=O)c2snnc2C)cc1 [Compound 91, 4-methyl-N-[4-(2-methyl-indolizin-3-yl)-phenyl]-[1,2,3]thiadiazole 5-carboxylic acid amide] | 100 to 500 |
| Fc1cccc(F)c1CNc1ccc(-c2cc(C(F)(F)F)ccc2C(F)(F)F)cc1 [Compound 127, N-(2′,5′-bis-trifluoromethyl-biphenyl-4-yl)-2,6-difluoro-benzyl amine] | < 100 |
| Cc1nnsc1C(=O)Nc1ccc(-c2cc(C(F)(F)F)ccc2Cl)cc1 [Compound 27, 4-Methyl-[1,2,3]thiadiazole-5-carboxylic acid (2′-chloro-5′-trifluoromethyl-biphenyl-4-yl)-amide] | < 100 |
| O=C(Nc1ccc(-c2cc(C(F)(F)F)ccc2C(F)(F)F)cc1)c1cccc(F)c1F [Compound 18, N-(2′,5′-Bis-trifluoromethyl-biphenyl-4-yl)-2,3-difluoro-benzamide] | < 100 |
| COc1ccc(C)cc1-c1ccc(NC(=O)c2ccncc2C)cc1 [Compound 69, 3-methyl-pyridine-4-carboxylic acid (2′-methoxy-5′-methylbiphenyl-4-yl)-amide] | < 100 |
| COc1ccc(OC)c(-c2ccc(NC(=O)c3snnc3C)cc2)c1 [Compound 58, 4-methyl-[1,2,3]-thiadiazole-5-carboxylic acid (2′,5′-dimethoxy-biphenyl-4-yl)-amide] | < 100 |

same assay, conditions: Homo sapiens, PHA, bin 500 nM-1 μM

| SMILES | IC50 [nM] |
| --- | --- |
| O=C(Nc1ccc(-c2cc(C(F)(F)F)ccc2C(F)(F)F)cc1)c1cccc2c1OCCO2 [Compound 61, 2,3-dihydro-benzo[1,4]dioxine-5-carboxylic acid (2′,5′-bis-trifluoromethyl-biphenyl-4-yl)-amide] | 500 to 1000 |
| Cc1cc(C(=O)Nc2ccc(-c3cc(C(F)(F)F)ccc3C(F)(F)F)cc2)no1 [Compound 39, 5-Methyl-isoxazol-3-carboxylic acid (2′,5′-bis-trifluoromethyl-biphenyl-4-yl)-amide] | 500 to 1000 |
| O=C(Nc1ccc(-c2ccccc2C(F)(F)F)c(C(F)(F)F)c1)c1cccc(F)c1F [Compound 4, N-(2,2′-Bis-trifluoromethyl-biphenyl-4-yl)-2,3-difluoro-benzamide] | 500 to 1000 |
| O=C(Nc1ccc(-c2cc(C(F)(F)F)ccc2C(F)(F)F)cc1)c1ccccc1O [Compound 49, N-(2′,5′-bis-trifluoromethyl-biphenyl-4-yl)-2-hydroxybenzamide] | 500 to 1000 |
| O=C(Nc1ccc(-c2ccccc2C(F)(F)F)cc1)c1cccnc1 [Compound 7, N-(2′-Trifluoromethyl-biphenyl-4-yl)-nicotinamide] | 500 to 1000 |

same assay, conditions: Homo sapiens, PHA, bin >1 μM

| SMILES | IC50 [nM] |
| --- | --- |
| CCn1nc(C)cc1C(=O)Nc1ccc(-c2ccccc2C(F)(F)F)cc1 [Compound 14, 2-Ethyl-5-methyl-2H-pyrazole-3-carboxylic acid (2′-trifluoromethyl-biphenyl-4-yl)-amide] | > 1000 |
| O=C(Nc1ccc(-c2ccccc2C(F)(F)F)cc1)c1ccc(F)cc1 [Compound 10, 4-Fluoro-N-(2′-trifluoromethyl-biphenyl-4-yl)-benzamide] | > 1000 |
| O=C(Nc1ccc(-c2ccccc2C(F)(F)F)cc1)c1cnccn1 [Compound 26, Pyrazine-2-carboxylic acid (2′-trifluoromethyl-biphenyl-4-yl)-amide] | > 1000 |
| CN(C)C(=O)c1ccccc1-c1ccc(NC(=O)c2cccc(F)c2F)cc1 [Compound 6, 4′-(2,3-Difluoro-benzoylamino)-biphenyl-2-carboxylic acid dimethylamide] | > 1000 |
